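Step 1: Grow cells in 96-well plates. Step 2: Expose to compound for 48 hours at 5 concentrations. Step 3: Interpolate endpoints linearly; if unreached, use highest concentration. GI50 = concentration required for 50% inhibition of growth.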 The source made the active and inactive calls. Cut-off read from the data, not from the text of the source: active = GI50 up to about 1.1 µM and inactive = higher.
Tests used:
Experiment in all cases: DTP human tumour cell line panel, 48 h
[1] = test system: CAKI-1
[2] = test system: DU-145
[3] = test system: EKVX
[4] = test system: HCC 2998
[5] = test system: HOP-92
[6] = test system: HT-29
[7] = test system: K562
[8] = test system: NCI-H522
[9] = test system: OVCAR-3
[10] = test system: OVCAR-5
[11] = test system: OVCAR-8
[12] = test system: PC-3
[13] = test system: RPMI-8226
[14] = test system: SF-268
[15] = test system: SK-OV-3
[16] = test system: SNB-19
[17] = test system: SR
[18] = test system: SW-620
[19] = test system: T47D
[20] = test system: UACC-257

Row | Compound | GI50 [1] | GI50 [2] | GI50 [3] | GI50 [4] | GI50 [5] | GI50 [6] | GI50 [7] | GI50 [8] | GI50 [9] | GI50 [10] | GI50 [11] | GI50 [12] | GI50 [13] | GI50 [14] | GI50 [15] | GI50 [16] | GI50 [17] | GI50 [18] | GI50 [19] | GI50 [20]
1 | COc1oc(C(=O)NC2CCCCC2)c(-c2ccc(Cl)cc2)c1S(=O)(=O)c1ccccc1 | 3.37 µM (inactive) | 18.3 µM (inactive) | 9.98 µM (inactive) | 19 µM (inactive) | 1.5 µM (inactive) | 2.26 µM (inactive) | 12.3 µM (inactive) | 1.34 µM (inactive) | 1.89 µM (inactive) | 23.4 µM (inactive) | 6.4 µM (inactive) | 10.7 µM (inactive) | 2.15 µM (inactive) | 3.46 µM (inactive) | 25.6 µM (inactive) | 99.3 µM (inactive) | 5.51 µM (inactive) | 38.2 µM (inactive) | 37.7 µM (inactive) | 11.8 µM (inactive)
2 | COc1cccc([C@H]2CC(=O)c3cc4c(cc3N2)OCO4)c1 | 0.384 µM (active) | 0.397 µM (active) | – | 0.434 µM (active) | 19.1 µM (inactive) | 0.194 µM (active) | 1.3 µM (inactive) | 0.238 µM (active) | 0.598 µM (active) | 0.441 µM (active) | 0.401 µM (active) | 0.275 µM (active) | 0.579 µM (active) | 0.646 µM (active) | 0.419 µM (active) | 0.312 µM (active) | 0.318 µM (active) | 0.428 µM (active) | > 100 µM (inactive) | 0.91 µM (active)
3 | c1ccc2c(c1)SCCCS2 | – | > 100 µM (inactive) | > 100 µM (inactive) | > 100 µM (inactive) | 22.4 µM (inactive) | > 100 µM (inactive) | > 100 µM (inactive) | > 100 µM (inactive) | > 100 µM (inactive) | > 100 µM (inactive) | > 100 µM (inactive) | > 100 µM (inactive) | – | > 100 µM (inactive) | > 100 µM (inactive) | > 100 µM (inactive) | > 100 µM (inactive) | > 100 µM (inactive) | > 100 µM (inactive) | > 100 µM (inactive)
4 | CCOC(=O)c1cc2cc([N+](=O)[O-])ccc2oc1=O | > 100 µM (inactive) | > 100 µM (inactive) | > 100 µM (inactive) | 58.6 µM (inactive) | > 100 µM (inactive) | > 100 µM (inactive) | 41.2 µM (inactive) | > 100 µM (inactive) | > 100 µM (inactive) | > 100 µM (inactive) | > 100 µM (inactive) | > 100 µM (inactive) | > 100 µM (inactive) | 39.3 µM (inactive) | – | > 100 µM (inactive) | > 100 µM (inactive) | > 100 µM (inactive) | > 100 µM (inactive) | > 100 µM (inactive)
5 | COC(=O)CCC1=CCC2(SC)C(=O)Nc3cccc1c32 (centres undefined) | > 100 µM (inactive) | 44.5 µM (inactive) | 65.3 µM (inactive) | > 100 µM (inactive) | > 100 µM (inactive) | > 100 µM (inactive) | – | > 100 µM (inactive) | > 100 µM (inactive) | > 100 µM (inactive) | > 100 µM (inactive) | > 100 µM (inactive) | > 100 µM (inactive) | > 100 µM (inactive) | > 100 µM (inactive) | > 100 µM (inactive) | > 100 µM (inactive) | > 100 µM (inactive) | 4.7 µM (inactive) | > 100 µM (inactive)
6 | CCN(CC)c1ccc2cc(-c3nc(O)c4ccccc4n3)c(=N)oc2c1 | > 100 µM (inactive) | > 100 µM (inactive) | > 100 µM (inactive) | > 100 µM (inactive) | > 100 µM (inactive) | > 100 µM (inactive) | > 100 µM (inactive) | > 100 µM (inactive) | – | > 100 µM (inactive) | > 100 µM (inactive) | > 100 µM (inactive) | > 100 µM (inactive) | > 100 µM (inactive) | > 100 µM (inactive) | > 100 µM (inactive) | > 100 µM (inactive) | > 100 µM (inactive) | > 100 µM (inactive) | > 100 µM (inactive)
7 | CCOC1NC(=O)c2ccccc21 (centres undefined) | – | > 100 µM (inactive) | > 100 µM (inactive) | > 100 µM (inactive) | > 100 µM (inactive) | > 100 µM (inactive) | > 100 µM (inactive) | > 100 µM (inactive) | > 100 µM (inactive) | > 100 µM (inactive) | > 100 µM (inactive) | > 100 µM (inactive) | > 100 µM (inactive) | > 100 µM (inactive) | > 100 µM (inactive) | > 100 µM (inactive) | > 100 µM (inactive) | > 100 µM (inactive) | > 100 µM (inactive) | > 100 µM (inactive)
8 | CSc1ccccc1NC1=NCCO1 | > 100 µM (inactive) | > 100 µM (inactive) | > 100 µM (inactive) | > 100 µM (inactive) | > 100 µM (inactive) | > 100 µM (inactive) | > 100 µM (inactive) | > 100 µM (inactive) | > 100 µM (inactive) | > 100 µM (inactive) | > 100 µM (inactive) | > 100 µM (inactive) | > 100 µM (inactive) | > 100 µM (inactive) | – | > 100 µM (inactive) | > 100 µM (inactive) | > 100 µM (inactive) | > 100 µM (inactive) | > 100 µM (inactive)
9 | O=C1OC(c2ccccc2)N(C(=O)c2ccccc2)C1Cc1ccc(OCc2ccccc2)cc1 (centres undefined) | – | > 100 µM (inactive) | 9.57 µM (inactive) | 21.8 µM (inactive) | 3.91 µM (inactive) | – | > 100 µM (inactive) | – | – | > 100 µM (inactive) | 94.8 µM (inactive) | 34.8 µM (inactive) | 87.5 µM (inactive) | 10.1 µM (inactive) | > 100 µM (inactive) | > 100 µM (inactive) | > 100 µM (inactive) | > 100 µM (inactive) | > 100 µM (inactive) | –
10 | CCOc1ccc2c(c1)c(CC(=O)O)cn2C | > 100 µM (inactive) | > 100 µM (inactive) | > 100 µM (inactive) | > 100 µM (inactive) | 45.6 µM (inactive) | > 100 µM (inactive) | > 100 µM (inactive) | > 100 µM (inactive) | > 100 µM (inactive) | – | > 100 µM (inactive) | > 100 µM (inactive) | > 100 µM (inactive) | > 100 µM (inactive) | > 100 µM (inactive) | > 100 µM (inactive) | > 100 µM (inactive) | – | > 100 µM (inactive) | > 100 µM (inactive)
11 | CO/C(=N\N=C\c1ccc(C(F)(F)F)cc1)c1ccncc1 | > 10 µM (inactive) | > 10 µM (inactive) | > 10 µM (inactive) | > 10 µM (inactive) | > 10 µM (inactive) | > 10 µM (inactive) | > 10 µM (inactive) | > 10 µM (inactive) | > 10 µM (inactive) | > 10 µM (inactive) | > 10 µM (inactive) | > 10 µM (inactive) | > 10 µM (inactive) | > 10 µM (inactive) | – | > 10 µM (inactive) | > 10 µM (inactive) | > 10 µM (inactive) | > 10 µM (inactive) | > 10 µM (inactive)
12 | O=[N+]([O-])/C(Cl)=C(\Nc1ccccc1)C(Cl)=C(Cl)Cl | 48.3 µM (inactive) | 36.8 µM (inactive) | 39.8 µM (inactive) | 37.5 µM (inactive) | 28.9 µM (inactive) | 30.5 µM (inactive) | 25 µM (inactive) | 42.7 µM (inactive) | 18.2 µM (inactive) | 40.8 µM (inactive) | 23.5 µM (inactive) | 38.3 µM (inactive) | 25.6 µM (inactive) | 32.1 µM (inactive) | 43.7 µM (inactive) | 33.5 µM (inactive) | 27.4 µM (inactive) | – | 29.1 µM (inactive) | 49.8 µM (inactive)
13 | NC(N)=NCc1ccc2c(c1)OCO2 | 44.9 µM (inactive) | > 100 µM (inactive) | > 100 µM (inactive) | > 100 µM (inactive) | 54.1 µM (inactive) | 72.9 µM (inactive) | > 100 µM (inactive) | > 100 µM (inactive) | 97.3 µM (inactive) | > 100 µM (inactive) | – | > 100 µM (inactive) | 74 µM (inactive) | > 100 µM (inactive) | > 100 µM (inactive) | > 100 µM (inactive) | > 100 µM (inactive) | > 100 µM (inactive) | > 100 µM (inactive) | –
14 | O=C1/C(=C/c2ccc(Cl)cc2)N=C(c2ccccc2)N1c1nc2c(Cl)cc(Cl)cc2s1 | 36.5 µM (inactive) | 33.7 µM (inactive) | 14.3 µM (inactive) | 40.2 µM (inactive) | 26.2 µM (inactive) | 23.9 µM (inactive) | 25.1 µM (inactive) | – | 19.8 µM (inactive) | 35.2 µM (inactive) | 31.9 µM (inactive) | 18.5 µM (inactive) | 12.5 µM (inactive) | 43.9 µM (inactive) | 28.1 µM (inactive) | 34.8 µM (inactive) | 14.3 µM (inactive) | 30.7 µM (inactive) | 25.1 µM (inactive) | 41.7 µM (inactive)
15 | CCn1c(-c2cc3ccccc3cc2OC(C)=O)n[nH]c1=S | 30.8 µM (inactive) | 35.5 µM (inactive) | 9.95 µM (inactive) | 18 µM (inactive) | 58.1 µM (inactive) | 30.4 µM (inactive) | 14.5 µM (inactive) | 16.1 µM (inactive) | 23.7 µM (inactive) | 44.6 µM (inactive) | 38.4 µM (inactive) | 15.8 µM (inactive) | 18.7 µM (inactive) | 24.9 µM (inactive) | 50.7 µM (inactive) | – | 0.624 µM (active) | 35 µM (inactive) | 18.6 µM (inactive) | 24.2 µM (inactive)

— ChEMBL document CHEMBL1201862, “PubChem BioAssay data set” (2004)
